Source: patent publication US10150737B2, “Compounds for controlling arthropods” (priority 2013, dated 2018)

Key:
[1] = system: Phaedon cochleariae; test: Phaedon cochleariae - spray test; type: in vivo; conditions: larvae on Chinese cabbage leaf discs, after 7 days
How it was run: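 Chinese cabbage leaf discs sprayed with compound formulated in acetone/DMF and water containing 1000 ppm emulsifier; once dry, infested with mustard beetle larvae. Efficacy (% larvae killed) scored after 7 days.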

[2] = system: Musca domestica; test: Musca domestica test; type: in vivo; conditions: application rate 100 ppm; adult houseflies; after 2 days
How it was run: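 Feeding exposure: adult Musca domestica, 10 per vessel, given a sponge with sugar solution and test formulation at the desired concentration; % mortality determined on day 2.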

[3] = system: Tetranychus urticae; test: Tetranychus urticae - spray test, OP-resistant; type: in vivo; conditions: bean leaf discs, after 6 days
How it was run: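 Compound dissolved in acetone/DMF, diluted with water containing 1000 ppm alkylaryl polyglycol ether emulsifier to test concentrations. Bean leaf discs infested with all stages of spider mites were sprayed; % kill determined after 6 days (100% = all mites dead, 0% = none).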

[4] = logP determination by HPLC on a reversed-phase column (C18); type: physicochemical; conditions: for logP^a): HPLC-MS method a); for logP^a) / log P: reversed-phase column (C18); for log P: HPLC-MS, Table I-T3
[5] = system: Rhipicephalus sanguineus; test: Rhipicephalus sanguineus - in vitro contact tests with adult brown dog ticks; type: in vivo; conditions: after 48 h, ticks dead or moribund
How it was run: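 Test tubes coated with active ingredient in acetone, 5 μg/cm^2 at 900 ppm. 5-10 adult ticks per tube, kept dark at room temperature for 48 h. Ticks then heated at 45-50° C ≤5 min; motionless or uncoordinated ticks scored dead/moribund, efficacy as % dead or moribund.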

[6] = system: Ctenocephalides felis; test: Ctenocephalides felis - oral test; type: in vivo; conditions: application rate 100 ppm in citrated cattle blood; after 2 days
How it was run: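 Compound in DMSO diluted into citrated cattle blood, fed through a parafilm membrane to about 20 unfed adult cat fleas. Kill in % scored after 2 days (100% = all dead).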

[7] = system: Spodoptera frugiperda; test: Spodoptera frugiperda - spray test; type: in vivo; conditions: caterpillars on maize leaf discs, after 7 days
How it was run: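 Maize leaf discs sprayed with compound formulated in acetone/DMF and diluted in water containing 1000 ppm alkylaryl polyglycol ether emulsifier, then infested with armyworm caterpillars after drying. Efficacy scored after 7 days as % caterpillars killed (100% all, 0% none).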

[8] = system: Lucilia cuprina; test: Lucilia cuprina test; type: in vivo; conditions: application rate 100 ppm; L1 larvae; after 2 days
How it was run: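 About 20 L1 larvae placed on minced horsemeat treated with compound, formulated in DMSO and diluted with water to test concentration. Kill in % scored after 2 days (100% = all larvae dead, 0% = none).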

[9] = system: Amblyomma hebraeum; test: Amblyomma hebaraeum test (tick nymphs, immersion); type: in vivo; conditions: application rate 100 ppm; tick nymphs immersed one minute; after 42 days
How it was run: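 Tick nymphs immersed for one minute in compound diluted in water from a DMSO concentrate, then held on filter paper in a Petri dish in a climate-controlled cabinet. Kill (%) scored after 42 days; 100% means all ticks dead, 0% none.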

[10] = system: Ctenocephalides felis; test: Ctenocephalides felis - in vitro contact tests with adult cat fleas; type: in vivo; conditions: application rate 5 μg/cm2 (=500 g/ha); after 48 h; fleas dead or moribund
How it was run: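 Tubes coated with compound in acetone (250 μl of 900 ppm solution gives 5 μg/cm^2 on 44.7 cm^2), solvent evaporated, then 5–10 adult fleas added and kept horizontal at room temperature and ambient humidity. After 48 h, dead or moribund (motionless/uncoordinated) fleas scored as % efficacy.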

[11] = system: Myzus persicae; test: Myzus persicae - spray test; type: in vivo; conditions: Chinese cabbage leaf discs, after 6 days
How it was run: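 Chinese cabbage leaf discs carrying all stages of Myzus persicae sprayed with compound in acetone/DMF diluted in water with 1000 ppm emulsifier. Efficacy (% aphids killed) assessed after 6 days.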

[12] = system: Boophilus microplus; test: Boophilus microplus - injection test; type: in vivo; conditions: application rate 20 μg/animal; injection into engorged adult female ticks; after 7 days
How it was run: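 Active ingredient in DMSO, 1 μl injected into the abdomen of 5 engorged adult female ticks, then held in a climate-controlled room. Efficacy scored after 7 days from laying of fertile eggs, with non-fertile-looking eggs kept about 42 days for larval hatch; 100% means no fertile eggs.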

[13] = system: Boophilus microplus Parkhurst strain, SP-resistant; test: Boophilus microplus - dip test; type: in vivo; conditions: application rate 100 ppm; dip of engorged adult female ticks; after 7 days
How it was run: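 SP-resistant Parkhurst strain engorged adult female Boophilus microplus (8-10 per tube) dipped in DMSO-based compound dilutions in water, then kept in a climate-controlled room. Efficacy scored after 7 days from fertile egg laying, with larval hatch checked after about 42 days; 100% means no fertile eggs.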

Row | Structure (SMILES) | efficacy ([1]; application rate 500 g/ha) | efficacy (kill) [2] | efficacy ([3]; application rate 500 g/ha) | logP^a) [4] | log P [4] | efficacy ([5]; application rate 1 μg/cm2) | efficacy (kill) [6] | efficacy ([7]; application rate 500 g/ha) | efficacy (kill) [8] | efficacy (kill) [9] | efficacy [10] | efficacy ([11]; application rate 500 g/ha) | efficacy (laying of fertile eggs) [12] | efficacy (laying of fertile eggs) [13] | efficacy ([5]; application rate 5 μg/cm2) | efficacy ([11]; application rate 100 g/ha) | efficacy ([1]; application rate 100 g/ha) | efficacy ([3]; application rate 100 g/ha) | efficacy ([7]; application rate 100 g/ha) | logP ([4]; HPLC, C18 reversed phase, acetonitrile/water with formic acid, EEC Directive 79/831 Annex V.A8)
1 | Cc1cc(C(F)(C(F)(F)F)C(F)(F)F)cc(C(F)(F)F)c1-n1cc(-c2cnc(Cl)c(C(=O)NC3(C#N)CC3)c2)cn1 [I-T3-108] | 100% | 100% | 100% | 4.0 | 4.0 | 100% | 100% | 100% | 100% | 100% | 100% | 100% | 100% | 100% |  |  |  |  |  | 
2 | CCc1cc(C(F)(C(F)(F)F)C(F)(F)F)cc(C)c1-n1cc(-c2cnc(Cl)c(C(=O)NC3CC3)c2)cn1 [I-T3-109] | 100% | 100% | 100% | 4.2 | 4.2 |  | 100% | 100% | 100% | 100% | 100% | 90% | 100% | 100% | 100% |  |  |  |  | 
3 | CCc1cc(C(F)(C(F)(F)F)C(F)(F)F)cc(C)c1-n1cc(-c2cnc(Cl)c(C(=O)NC3(C#N)CC3)c2)cn1 [I-T3-110] | 100% | 100% | 100% | 4.1 | 4.1 |  | 100% | 100% | 100% | 100% | 100% | 100% | 100% | 100% | 100% |  |  |  |  | 
4 | O=C(NC1CC1)c1cc(-c2cnn(-c3c(Cl)cc(C(F)(C(F)(F)F)C(F)(F)F)cc3C(F)(F)F)c2)cnc1Cl [I-T3-112] | 100% | 100% | 100% | 4.0 | 4.0 |  | 100% | 100% | 100% | 100% | 100% |  | 100% | 100% | 100% | 100% |  |  |  | 
5 | N#CC1(NC(=O)c2cc(-c3cnn(-c4c(Cl)cc(C(F)(C(F)(F)F)C(F)(F)F)cc4C(F)(F)F)c3)cnc2Cl)CC1 [I-T3-114] | 100% | 100% | 100% | 4.0 | 4.0 | 100% | 100% | 100% | 100% | 100% | 100% | 90% | 100% | 100% |  |  |  |  |  | 
6 | Cc1cc(C(F)(C(F)(F)F)C(F)(F)F)cc(C(F)(F)F)c1-n1cc(-c2cnc(C)c(C(=O)NC3CC3)c2)cn1 [I-T3-117] | 100% | 100% | 90% | 3.5 | 3.5 |  | 100% | 100% | 100% | 100% | 100% | 90% | 100% | 100% | 100% |  |  |  |  | 
7 | Cc1cc(C(F)(C(F)(F)F)C(F)(F)F)cc(C(F)(F)F)c1-n1cc(-c2cnc(C)c(C(=O)NC3(C#N)CC3)c2)cn1 [I-T3-119] | 100% | 100% | 100% | 3.6 | 3.6 |  | 100% | 100% | 100% | 100% | 100% | 90% | 100% | 100% | 100% |  |  |  |  | 
8 | Cc1cc(C(F)(C(F)(F)F)C(F)(F)F)cc(C(F)(F)F)c1-n1cc(-c2cnc(C)c(C(=O)N(C)C3(C#N)CC3)c2)cn1 [I-T3-123] |  | 100% |  | 3.9 | 3.9 | 80% | 100% |  | 100% | 80% | 100% |  | 100% | 100% |  | 100% | 100% | 90% | 100% | 
9 | O=C(NC1CC1)c1cc(-c2cnn(-c3c(Cl)cc(C(F)(C(F)(F)F)C(F)(F)F)cc3OC(F)(F)F)c2)ccc1Cl [I-T3-162] |  | 100% |  | 4.6 | 4.6 |  | 100% |  | 100% | 100% | 100% |  | 100% | 100% | 100% | 100% | 100% | 100% | 100% | 
10 | N#CC1(NC(=O)c2cc(-c3cnn(-c4c(Cl)cc(C(F)(C(F)(F)F)C(F)(F)F)cc4OC(F)(F)F)c3)ccc2Cl)CC1 [I-T3-163] |  | 100% |  | 4.5 | 4.5 |  | 100% |  | 100% | 100% | 100% |  | 100% | 100% | 100% | 90% | 100% | 100% | 100% | 
11 | Cc1cc(C(F)(C(F)(F)F)C(F)(F)F)cc(C)c1-c1cc(-c2ccc(Cl)c(C(=O)NC3(C#N)CC3)c2)on1 [I-T22-2] |  | 100% |  |  |  |  | 100% |  | 100% | 100% | 100% |  | 100% | 100% | 100% | 100% | 100% | 90% | 100% | 4.6
